Structures can show the parent of a compound that is named as a salt. Where two headings read alike, the source gives them in different places.
Legend:
[1] = tested on: abdominal cramps induced in mice by acetic acid; conditions: oral route, cited from earlier work
[2] = tested on: abdominal cramps induced in mice by acetic acid; assay: abdominal cramps induced in mice by intraperitoneal acetic acid, products by the subcutaneous route; type: in vivo; conditions: for ED50: Mus musculus, product alone, subcutaneous, 30 min before acetic acid i.p., read-out: ED50 (dose producing 50% reduction in the number of cramps)
Description: The analgesic effect of a nefopam-ibuprofen combination was studied in the model of abdominal cramps induced in mice by the intraperitoneal administration of acetic acid. This model of pain induced by a chemical substance corresponds to acute, visceral, inflammatory pain. Male CD1 mice (C. River breed) weighing from 25 to 30 grams are used after an acclimatization of at least 7 days in the animal facility (t°=22±2; hygrometry=50±20%; food […]-darkness: […])). On the day of the experiment, the non-fasting mice are weighed, marked and divided at random into groups of 10. The acetic acid solution (Sigma) is prepared at 0.6% (0.1 ml/10 g) i.e. 60 mg of acetic acid in 10 ml of NaCl at 0.9%. At t=0, the mouse receives the product under study or the carrier liquid by the subcutaneous route (0.1 ml/10 g). At t=30 minutes, the acetic acid is injected by the intraperitoneal route (0.1 ml/10 g). A count is taken of the number of abdominal cramps from 5 to 20 minutes after the injection of acetic acid. Clear abdominal cramps characterized by stretching of the hind paws and/or hollowing of the flanks with writhing are regarded as positive. Nefopam hydrochloride (Biocodex, lot 38) (referred to hereinafter simply as nefopam) is dissolved in distilled water or in NaCl at 0.9%. The ibuprofen (Sigma, ref 1-4883) is suspended in Tween 80 at 1%. The test used is a variance analysis based on 3 groups and a Student's t test for 2 groups. The treated group(s) that differ(s) from the control group is (are) then determined. The effective doses for 50% antinociceptive effect (ED50) are calculated using the PharmToolsPro program (version 1.1.27, […] Group Inc.) in accordance with the Tallarida (2000) method Drugs synergism and dose-effect data analysis CRC Press). At least 10 mice are used for each dose, and at least 3 doses are used to determine the dose-response curve. The dose that produces 50% antinociceptive effect (50% reduction in the number of cramps) is calculated by a standard linear regression analysis of the dose-response curve. The interaction is evaluated by an isobolographic analysis of the co-administration of a combination of doses at a fixed ratio according to Tallarida (2000) op. cit., Tallarida et al. (1989) Life Sci. 45:947-961 and Tallarida et al. (1997) Life Sci. 61:PL417-PL425. The isobologram is constructed by joining the ED50 of the ibuprofen with that of the nefopam in order to obtain the additivity line. The ED50 of the combination is determined by linear regression analysis of the dose-response curve and it is compared by at test with a theoretical additive ED50 obtained using the PharmToolsPro software.

## CC(C)Cc1ccc(C(C)C(=O)O)cc1 (stereo not shown) [Ibuprofen, ibuprofen]
[1]; Dolezal & Kusiak (2002)
  dose from which antinociceptive activity is significant: ≥ 30 mg/kg
[1]; Jones et al. (2005)
  ED50: 95 mg/kg
[2]
  ED50: 18.6 ± 2.4 mg/kg
[2]; ibuprofen 1 mg/kg s.c.
  % variation of number of cramps: +7%
  Number of cramps (mean ± sem): 40.2 ± 3.2
[2]; ibuprofen 3 mg/kg s.c.
  % variation of number of cramps: +14%
  Number of cramps (mean ± sem): 43.0 ± 6.6
[2]; ibuprofen 10 mg/kg s.c.
  % variation of number of cramps: −29%
  Number of cramps (mean ± sem): 26.8 ± 3.9
[2]; ibuprofen 20 mg/kg s.c.
  % variation of number of cramps: −41%
  Number of cramps (mean ± sem): 22.0 ± 2.0
[2]; ibuprofen 30 mg/kg s.c.
  % variation of number of cramps: −68%
  Number of cramps (mean ± sem): 12.1 ± 2.7
[2]; ibuprofen 50 mg/kg s.c.
  % variation of number of cramps: −84%
  Number of cramps (mean ± sem): 5.9 ± 1.3
[2]; ibuprofen 100 mg/kg s.c.
  % variation of number of cramps: −84%
  Number of cramps (mean ± sem): 6.0 ± 1.4

## CN1CCOC(c2ccccc2)c2ccccc2C1 (stereo not shown) [Nefopam, Nefopam hydrochloride]
[2]
  ED50: 2.4 ± 0.215 mg/kg
[2]; nefopam 0.3 mg/kg s.c.
  % variation of number of cramps: −9%
  Number of cramps (mean ± sem): 33.6 ± 3.8
[2]; nefopam 1.0 mg/kg s.c.
  % variation of number of cramps: −25%
  Number of cramps (mean ± sem): 28.0 ± 6.3
[2]; nefopam 3.0 mg/kg s.c.
  % variation of number of cramps: −55%
  Number of cramps (mean ± sem): 16.7 ± 2.0
[2]; nefopam 10.0 mg/kg s.c.
  % variation of number of cramps: −81%
  Number of cramps (mean ± sem): 7.1 ± 1.7
[2]; nefopam 20.0 mg/kg s.c.
  % variation of number of cramps: −98%
  Number of cramps (mean ± sem): 0.6 ± 0.3

— patent publication US8575211B2, “Synergistic combination of analgesic compounds” (Biocodex, priority 2008, dated 2013)
